Entries after “also recorded” stand apart in the source; their conditions may differ.
How the values were obtained:
Ts65Dn mice = assay: Exploratory paradigm: ability to recognize a novel object in a novel location (discrimination ratio), Ts65Dn Down syndrome mice; assay type: in vivo, mouse; conditions: for cognition (discrimination ratio) compared to treatment with vehicle alone: Ts65Dn mice; for cognition (discrimination ratio) compared to treatment with vehicle alone / cognitive performance (discrimination ratio) compared to no treatment / vehicle alone: 10 mg/kg i.p.; for cognitive performance (discrimination ratio) compared to no treatment / vehicle alone: 9-month-old Ts65Dn mice
Method: […] Animals were kept on a 12 hour light/dark cycle and experimentation was conducted during the light portion of the cycle. Animals had unlimited access to food and water. All animals used were housed individually to limit the interference of social interaction on cognitive test performance. Animal care and experimental testing procedures conformed to NIH, IACUC, and AALAC standards and protocols.
(§1) Ts65Dn are compared to their control littermates for the effects of excipients and compounds in altering the performance and rescue of deficits in the Ts65Dn DS mouse model.
The apparatus for these experiments consisted of a 40 cm×40 cm Plexiglas box with clear walls and a dark grey floor. The box was placed on a circular white table 1 m in diameter. Four distinct, approximately 20 cm×20 cm black and white shapes were placed 30 cm away from the midpoint of each side of the box. Objects were made from various washable, non-porous materials (plastic, metal, glass, etc.), 2-7 cm in height and varied in color, pattern and texture. To prevent odor cues, all apparatus and objects were disinfected and deodorized with HDQ after each use.
The experimental paradigms utilized the inherent tendency of rodents to differentially explore novel stimuli over familiar stimuli. Exploration was defined as any investigative behavior where mice have active and direct contact with an object. Such behaviors included head orientation and sniffing within <1.0 cm of the object, pawing, biting, or crawling over the objects. Exploration was recorded with an overhead video camera and the duration of exploration was measured with a stopwatch. The week prior to testing, all animals were handled in daily sessions and given an opportunity to habituate to the clear or red apparatus. Each experimental session presented the animal with new object sets and tests were separated by a minimum 48 hour interval. It should be noted that order effects are not normally observed in exploration tasks. Each test consisted of a Habituation Phase, during which mice display reduced exploration over time as a function of habituation, and a Test Phase on novelty detection that is interpreted to reflect recognition memory.
For each of the 7 compounds 1-7, the compound was administered to Ts65Dn mice via i.p. injection at a concentration of 3.0 mg/kg (compound 1) or 10 mg/kg (compounds 2, 3, 4, 5, 6, and 7) body weight delivered in a vehicle of methyl cellulose+0.2% tween 80 solution, while additional Ts65Dn mice were administered with vehicle alone. Each animal received a volume (ml) of drug in vehicle equal to 1% of its body weight (g) or an equal volume of vehicle alone. Forty minutes after the compound is injected, the Habituation phase begins. Therefore, the Test phase occurs 60 minutes after administration of the drug.
For each experiment the animal was placed in center of the clear acrylic box and presented with two different objects spaced 15 cm apart for 15 minutes of free explorations of the apparatus, stimulus objects, and distal environmental cues (Habituation Phase). After the Habituation Phase, a black container was placed over the mouse for a 5-minute Delay. During this delay, one object was exchanged with a new, unfamiliar object in a novel location (novel object), while the other object is replaced with an identical object in the same location (familiar object). Following the delay the black container was removed, beginning the Test Phase and the mouse is allowed to re-explore for 5 minutes (Test Phase).
The duration of exploration of the Novel and Familiar stimuli during the Test Phase was individually measured with stopwatches, rounding to the 0.5 second. […] A zero score would reflect no preference for either the novel or familiar object. A positive score reflects a preference for exploration of the novel object, and is associated with the animal's level of hippocampal function and memory or cognition. […]

mouse 5-HT6 receptor = mouse 5-HT6 receptor (Mus musculus, UniProt Q9R1C8); conditions: cited from earlier work
mouse 5-HT6 receptor, sequence (Q9R1C8 whole entry): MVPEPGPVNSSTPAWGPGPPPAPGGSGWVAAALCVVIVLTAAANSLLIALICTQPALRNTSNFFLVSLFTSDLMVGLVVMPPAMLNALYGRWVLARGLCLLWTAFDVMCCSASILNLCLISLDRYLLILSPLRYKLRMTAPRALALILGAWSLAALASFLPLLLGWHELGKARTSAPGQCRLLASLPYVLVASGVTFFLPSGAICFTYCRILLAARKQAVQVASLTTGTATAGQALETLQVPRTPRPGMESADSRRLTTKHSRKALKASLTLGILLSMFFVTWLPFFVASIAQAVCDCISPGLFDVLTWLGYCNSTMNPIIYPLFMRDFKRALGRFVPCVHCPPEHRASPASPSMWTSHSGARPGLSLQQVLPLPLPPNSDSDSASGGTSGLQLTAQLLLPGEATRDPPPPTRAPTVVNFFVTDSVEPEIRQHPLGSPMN

[1] = biological target: human recombinant and native 5-HT6 receptors (Homo sapiens, UniProt P50406); conditions: cited from earlier work
human recombinant and native 5-HT6 receptors, sequence (P50406 whole entry): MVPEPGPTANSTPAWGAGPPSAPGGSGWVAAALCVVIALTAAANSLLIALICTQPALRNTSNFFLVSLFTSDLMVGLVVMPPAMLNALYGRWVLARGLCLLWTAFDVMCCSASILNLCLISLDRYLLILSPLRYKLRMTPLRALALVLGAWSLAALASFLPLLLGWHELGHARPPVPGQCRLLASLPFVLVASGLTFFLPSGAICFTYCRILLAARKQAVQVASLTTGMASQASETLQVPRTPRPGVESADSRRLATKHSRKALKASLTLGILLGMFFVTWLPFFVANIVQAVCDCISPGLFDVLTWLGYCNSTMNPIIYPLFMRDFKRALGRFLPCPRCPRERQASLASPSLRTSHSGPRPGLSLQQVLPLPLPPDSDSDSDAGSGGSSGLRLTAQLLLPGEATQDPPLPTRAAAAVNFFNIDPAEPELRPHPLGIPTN

rat 5-HT6 receptor = rat 5-HT6 receptor (Rattus norvegicus, UniProt P31388); conditions: cited from earlier work
rat 5-HT6 receptor, sequence (P31388 whole entry): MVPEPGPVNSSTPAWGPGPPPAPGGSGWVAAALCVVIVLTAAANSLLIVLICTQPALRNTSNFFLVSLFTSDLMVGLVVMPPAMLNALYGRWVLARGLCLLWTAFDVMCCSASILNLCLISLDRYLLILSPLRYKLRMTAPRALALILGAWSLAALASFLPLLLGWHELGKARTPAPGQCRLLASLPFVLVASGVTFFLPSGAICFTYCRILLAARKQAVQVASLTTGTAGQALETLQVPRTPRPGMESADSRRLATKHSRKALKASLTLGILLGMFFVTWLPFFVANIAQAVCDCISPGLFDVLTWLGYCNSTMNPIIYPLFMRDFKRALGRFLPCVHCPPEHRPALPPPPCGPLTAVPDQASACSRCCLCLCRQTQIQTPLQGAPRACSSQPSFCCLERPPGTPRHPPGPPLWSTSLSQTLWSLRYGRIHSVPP

[2] = tested on: scopolamine-induced memory deficits; conditions: Mitchell and Neumaier (2008); cited from earlier work
5-HT6 receptor [3] = biological target: T1, 5-HT6 receptor (Homo sapiens, UniProt P50406); conditions: Arnt et al. (2010); cited from earlier work
T1 sequence (P50406 whole entry): as the sequence (P50406 whole entry) above

control mice = assay: Exploratory paradigm: ability to recognize a novel object in a novel location (discrimination ratio), control littermates; assay type: in vivo, mouse; conditions: 3.0 mg/kg i.p.
Method: Male Ts65Dn/DnJ mice and male littermates were obtained from a commercial supplier (Jackson Laboratory, Bar Harbor, Me.), and tested at approximately 12-32 weeks of age, at a weight of 25-30 grams. Animals were kept on a 12 hour light/dark cycle and experimentation was conducted during the light portion of the cycle. Animals had unlimited access to food and water. All animals used were housed individually to limit the interference of social interaction on cognitive test performance. Animal care and experimental testing procedures conformed to NIH, IACUC, and AALAC standards and protocols.
as §1
The apparatus for these experiments consisted of a 40 cm×40 cm Plexiglas box with clear walls and a dark grey floor. The box was placed on a circular white table 1 m in diameter. […]
The experimental paradigms utilized the inherent tendency of rodents to differentially explore novel stimuli over familiar stimuli. […] Exploration was recorded with an overhead video camera and the duration of exploration was measured with a stopwatch. […]
The duration of exploration of the Novel and Familiar stimuli during the Test Phase was individually measured with stopwatches, rounding to the 0.5 second. […]

[4] = Hirst et al. (2006); cited from earlier work
18 other receptors = conditions: concentration of 10 μM; cited from earlier work
5-HT6 receptor [5] = biological target: T1, 5-HT6 receptor; conditions: cited from earlier work
[6] = Test phase 60 minutes after administration

CNc1cc(NS(=O)(=O)c2ccc(N)cc2)nc(NC)n1 [compound 5, 4-amino-N-(2,6-bis(methylamino)pyrimidin-4-yl)benzenesulfonamide]
cognition (discrimination ratio) compared to treatment with vehicle alone (Ts65Dn mice; Test phase 60 minutes after administration, 10 mg/kg): does not restore cognition; also recorded: does not improve cognition; also recorded: lack of response; also recorded: did not alter the cognitive abilities | binding to the mouse 5-HT6 receptor (mouse 5-HT6 receptor): does not bind; also recorded: does not recognize | binding to the human 5-HT6 receptor [1]: binds the human | recognition of the rat 5-HT6 receptor (rat 5-HT6 receptor): recognizes the rat

COc1ccc2[nH]c(-c3ccccc3)c(CCN(C)C)c2c1 [compound 2, 2-(5-methoxy-2-phenyl-1H-indol-3-yl)-N,N-dimethylethanamine]
cognition (discrimination ratio) compared to treatment with vehicle alone (Ts65Dn mice; [6]): significantly improves | effect on scopolamine-induced memory deficits [2]: reverse

CN1CCC(c2cn(C)c3ccc(OS(=O)(=O)c4c(F)cccc4F)cc23)CC1 [compound 4, 1-methyl-3-(1-methylpiperidin-4-yl)-1H-indol-5-yl 2,6-difluorobenzenesulfonate]
cognition (discrimination ratio) compared to treatment with vehicle alone (Ts65Dn mice; [6]): trend to increased discrimination ratios

Fc1ccc2c(CCNCc3cccc(OCC(F)(F)C(F)F)c3)c[nH]c2c1 [compound 6, 2-(6-fluoro-1H-indol-3-yl)-N-(3-(2,2,3,3-tetrafluoropropoxyl)benzyl)ethanamine]
cognitive performance (discrimination ratio) compared to no treatment / vehicle alone (Ts65Dn mice): significant increase | 5-HT6 receptor agonist activity (5-HT6 receptor [3]): no agonist activity

COc1ccc(S(=O)(=O)Nc2cc(Cl)cc(Cl)c2OC)cc1N1CCNCC1 [compound 1, N-(3,5-dichloro-2-methoxyphenyl)-4-methoxy-3-(piperazin-1-yl)benzenesulfonamide]
mean discrimination ratio compared to no treatment or treatment with vehicle alone (Ts65Dn mice; 3 to 4 month-old Ts65Dn mice, 3.0 mg/kg i.p., Test phase 60 minutes after administration): significant increase | discrimination ratio compared to no treatment or treatment with vehicle alone (Ts65Dn mice; 8-month-old Ts65Dn mice, 3.0 mg/kg i.p.): significantly increased | persistence of the treatment effect on mean discrimination ratio (Ts65Dn mice; 8-month-old Ts65Dn mice, tested two weeks after the treatment experiments): did not last | mean discrimination ratio, compound+vehicle vs. vehicle alone (control mice): did not respond differently | brain penetration [4]: brain penetrant | oral activity [4]: orally active

O=S(=O)(c1cccc2ccccc12)n1ccc2ccc(N3CCN4CCCC4C3)cc21 (stereo not shown) [compound 3, 2-(1-(naphthalen-1-ylsulfonyl)-1H-indol-6-yl)octahydropyrrolo[1,2-a]pyrazine]
cognition (discrimination ratio) compared to treatment with vehicle alone (Ts65Dn mice; [6]): significantly increased

Cc1ccc2c(c1)c1c(n2CCc2ccc(C)nc2)CCN(C)C1 [dimebolin]
inhibition of 18 other receptors (18 other receptors): 50% | ability to bind as 5-HT6 receptor antagonist (5-HT6 receptor [5]): approximately 20 times weaker

O=S(=O)(c1ccccc1)c1cnc2c(N3CCNCC3)cccc2c1 [compound 7, 3-(phenylsulfonyl)-8-(piperazin-1-yl)quinoline]
cognitive performance (discrimination ratio) compared to no treatment / vehicle alone (Ts65Dn mice): significantly improves

— patent US10478436B2, “Application of 5-HT6 receptor antagonists for the alleviation of cognitive deficits of down syndrome” (The University of Utah Research Foundation, priority 2011, dated 2019)
